Twelve compounds from patent publication US9884063B2, “Amido-substituted azole compounds” (Bayer Pharma Aktiengesellschaft, priority 2014, dated 2018) can be followed below.

The assay deals with T1, TNKS1 (Homo sapiens, UniProt O95271).
T1 sequence (O95271 1-1327): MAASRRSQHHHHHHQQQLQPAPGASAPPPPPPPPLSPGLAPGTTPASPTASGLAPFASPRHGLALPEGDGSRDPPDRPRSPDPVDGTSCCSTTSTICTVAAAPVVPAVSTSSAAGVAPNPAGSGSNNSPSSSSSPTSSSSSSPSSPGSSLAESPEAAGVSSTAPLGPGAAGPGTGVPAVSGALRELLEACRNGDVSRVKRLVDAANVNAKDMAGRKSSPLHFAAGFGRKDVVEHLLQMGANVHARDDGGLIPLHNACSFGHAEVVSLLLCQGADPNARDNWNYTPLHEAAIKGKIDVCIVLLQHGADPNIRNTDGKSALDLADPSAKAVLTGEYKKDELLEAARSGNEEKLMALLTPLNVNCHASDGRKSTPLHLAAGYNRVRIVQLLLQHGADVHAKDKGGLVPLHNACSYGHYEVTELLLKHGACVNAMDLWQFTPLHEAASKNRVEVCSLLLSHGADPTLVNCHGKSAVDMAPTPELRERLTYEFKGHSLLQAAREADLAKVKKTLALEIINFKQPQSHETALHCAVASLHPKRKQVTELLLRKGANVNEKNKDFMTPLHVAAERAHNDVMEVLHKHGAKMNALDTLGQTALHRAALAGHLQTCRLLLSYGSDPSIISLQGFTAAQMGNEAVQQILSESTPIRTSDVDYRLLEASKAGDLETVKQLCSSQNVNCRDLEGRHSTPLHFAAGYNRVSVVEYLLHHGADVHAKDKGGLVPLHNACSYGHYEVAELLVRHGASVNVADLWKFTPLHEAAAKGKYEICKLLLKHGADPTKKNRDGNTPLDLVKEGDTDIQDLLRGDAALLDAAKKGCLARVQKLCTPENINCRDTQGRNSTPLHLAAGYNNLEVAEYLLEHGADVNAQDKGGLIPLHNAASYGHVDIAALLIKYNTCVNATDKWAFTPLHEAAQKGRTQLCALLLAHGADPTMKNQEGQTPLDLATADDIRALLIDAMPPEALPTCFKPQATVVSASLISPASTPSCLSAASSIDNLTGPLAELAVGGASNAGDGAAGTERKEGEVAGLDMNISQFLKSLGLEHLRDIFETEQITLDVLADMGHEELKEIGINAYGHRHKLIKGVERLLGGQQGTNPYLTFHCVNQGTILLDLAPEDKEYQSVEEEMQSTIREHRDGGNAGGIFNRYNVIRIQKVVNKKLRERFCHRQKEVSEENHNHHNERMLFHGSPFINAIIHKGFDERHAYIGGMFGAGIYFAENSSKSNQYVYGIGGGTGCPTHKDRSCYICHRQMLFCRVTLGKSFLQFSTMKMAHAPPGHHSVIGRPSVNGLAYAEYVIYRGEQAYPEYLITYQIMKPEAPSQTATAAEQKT
Nature of the assay: Modified TNKS1 Assay 3 (BPS kit #80573, biotin-NAD+, 96 well). Type of assay: biochemical. The settings on record: human TNKS1, BPS kit #80573, 96 well. Summed up: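 Chemiluminescent assay of TNKS1-catalysed ribosylation of a protein substrate with biotin-labelled NAD+, detected via streptavidin-HRP; run per kit protocol. Inhibition lowers the signal, and IC50 is the compound concentration halving the normalised readout.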
As to `O=C(Nc1ccc(NC(=O)c2[nH]cnc2C(=O)NC2CC2)cc1)c1cc(F)c(F)cc1Cl` [Example 51, N^5-{4-[(2-chloro-4,5-difluorobenzoyl)amino]phenyl}-N^4-cyclopropyl-1H-imidazole-4,5-dicarboxamide], the IC50 was 0.23 µM.

In turn, `CC(CN1CCOCC1)NC(=O)c1[nH]cnc1C(=O)Nc1ccc(NC(=O)c2ccc(F)cc2Cl)cc1` (single isomer, unassigned; enantiomer 2) [Example 270, N^4-{4-[(2-chloro-4-fluorobenzoyl)amino]phenyl}-N^5-[1-(morpholin-4-yl)propan-2-yl]-1H-imidazole-4,5-dicarboxamide (enantiomer 2)] yielded an IC50 of 0.007 µM.

For `O=C(Nc1ccc(NC(=O)c2[nH]cnc2C(=O)N2CC3(COC3)C2)cc1)c1cc(F)c(F)cc1Cl` [Example 52, N-{4-[(2-chloro-4,5-difluorobenzoyl)amino]phenyl}-4-(2-oxa-6-azaspiro[3.3]hept-6-ylcarbonyl)-1H-imidazole-5-carboxamide], the half-inhibitory concentration (IC50) is over 0.5 µM.

The compound `C[C@@H]1CCCCN1CCNC(=O)c1[nH]cnc1C(=O)Nc1ccc(NC(=O)c2ccc(F)cc2Cl)cc1` [Example 267, N^4-{4-[(2-chloro-4-fluorobenzoyl)amino]phenyl}-N^5-{2-[(2R)-2-methylpiperidin-1-yl]ethyl}-1H-imidazole-4,5-dicarboxamide] gave a concentration for half-maximal inhibition (IC50) of 0.02 µM.

The compound `CNC(=O)c1nc[nH]c1C(=O)Nc1ccc(NC(=O)c2ccc(F)cc2Br)cc1` [Example 56, N^5-{4-[(2-bromo-4-fluorobenzoyl)amino]phenyl}-N^4-methyl-1H-imidazole-4,5-dicarboxamide] registered an IC50 of 0.09 µM.

Compound `O=C(Nc1ccc(NC(=O)c2[nH]cnc2C(=O)NCCN2CCCCC2)cc1)c1ccc(F)cc1Cl` [Example 32, N^4-{4-[(2-chloro-4-fluorobenzoyl)amino]phenyl}-N^5-[2-(piperidin-1-yl)ethyl]-1H-imidazole-4,5-dicarboxamide] showed an IC50 of 0.008 µM.

`Cc1nc(C(=O)Nc2ccc(NC(=O)c3ccc(F)cc3Cl)cc2)c(C(=O)NCCN2CCCCC2)[nH]1` [Example 67, N^4-{4-[(2-chloro-4-fluorobenzoyl)amino]phenyl}-2-methyl-N^5-[2-(piperidin-1-yl)ethyl]-1H-imidazole-4,5-dicarboxamide] came in with an IC50 of 0.005 µM.

`CNC(=O)c1nc[nH]c1C(=O)Nc1ccc(NC(=O)c2ccc(F)cc2I)cc1` [Example 61, N^5-{4-[(4-fluoro-2-iodobenzoyl)amino]phenyl}-N^4-methyl-1H-imidazole-4,5-dicarboxamide] displayed an IC50 of 0.14 µM.

Compound `CS(=O)(=O)c1ccc(C(=O)Nc2ccc(NC(=O)c3[nH]cnc3C(=O)NCCN3CCCCC3)cc2)c(Cl)c1` [Example 53, N^5-(4-{[2-chloro-4-(methylsulfonyl)benzoyl]amino}phenyl)-N^4-[2-(piperidin-1-yl)ethyl]-1H-imidazole-4,5-dicarboxamide] yielded an IC50 of 0.002 µM. Against the preceding compound, the IC50 is about 70-fold lower.

`CN(C)CCNC(=O)c1nc[nH]c1C(=O)Nc1ccc(NC(=O)c2ccc(F)cc2Cl)cc1` [Example 22, N^4-{4-[(2-chloro-4-fluorobenzoyl)amino]phenyl}-N^5-[2-(dimethylamino)ethyl]-1H-imidazole-4,5-dicarboxamide]: the concentration for half-maximal inhibition (IC50) was 0.03 µM.

Take `CNC(=O)c1nc[nH]c1C(=O)Nc1ccc(NC(=O)c2ccc(S(C)(=O)=O)cc2Cl)cc1` [Example 55, N^5-(4-{[2-chloro-4-(methylsulfonyl)benzoyl]amino}phenyl)-N^4-methyl-1H-imidazole-4,5-dicarboxamide]: the IC50 came out at 0.03 µM.

With `C[C@@H]1CCCN(CCNC(=O)c2[nH]cnc2C(=O)Nc2ccc(NC(=O)c3ccc(F)cc3Cl)cc2)C1` [Example 278, N^4-{4-[(2-chloro-4-fluorobenzoyl)amino]phenyl}-N^5-{2-[(3R)-3-methylpiperidin-1-yl]ethyl}-1H-imidazole-4,5-dicarboxamide], the IC50 is under 0.0005 µM.

As a reminder, the IC50 is the concentration that inhibits the measured activity by half. A low value points to inhibition by little substance.
